Assay results reported in article PMC8834506, “Optimization of Thymidine Kinase-Based Safety Switch for Neural Cell Therapy” (Cells, 2022).
Like-named read-outs stand apart in the source and are kept apart here.

How the values were obtained:
[1] = system: hESC (HS420) expressing Ki67-SR39h; assay: ATP-based cell survival assay, nucleoside-induced cell death; conditions: for EC50: Homo sapiens, 96 h
[2] = system: ReNcells Ubi-SR39h (proliferating); assay: ATP-based assay, EC50 in proliferating neural progenitors; assay type: cell-based; conditions: Homo sapiens, 96 h GCV exposure
Experimental: (§1) We then compared the ability of GCV to kill proliferating NPC that expressed the SR39h thymidine kinase under the control of the ubiquitin (ReNcells Ubi-SR39h) or the Ki67 promoter. (ReNcells Ki67-SR39h) (Figure 4). For this purpose, we first performed a dose response to GCV on undifferentiated NPC. […] We then explored the kinetic of cell death with the suicide enzyme driven either by Ki67 or ubiquitin promoter for different concentrations of GCV. The rapidity of cell death induction but not its final extent was a function of the GCV concentrations. […] This was true for a short-term treatment at 24 h and 48 h, but not at the later time points at 72 h and 96 h (Figure 4D).
Figure 4 EC50 and kinetics of GCV-induced cell death in proliferating and post-mitotic ReNcells. […] Cell viability was measured every 24 h using a bioluminescent ATP-based assay (n = 3). […] Cell viability was measured using an ATP-based assay. […]
Cell culture plate (96 wells plate Corning #3907, Corning, Lonay, Switzerland) were pre-coated with 60 μL per well of Poly-L-ornithine solution (Sigma, Merk, Eysins, Switzerland) at 37 °C for 30 min. […] For EC50 assays, the medium was changed daily for 4 days, then cell viability was assessed using an ATP-based assay. EC50 values for each construct were calculated using a four parameters equation (GraphPad, Prism8, San Diego, CA, USA). […]

[3] = system: ReNcells Ki67-SR39h (proliferating); assay: ATP-based assay, EC50 and kinetics of cell death in proliferating neural progenitors; parameters: species or system human; conditions: for EC50: Homo sapiens, 96 h GCV exposure
Experimental: as §1
Figure 4 EC50 and kinetics of GCV-induced cell death in proliferating and post-mitotic ReNcells. SR39h was expressed in ReNcells (immortalized neural precursor cells that can be differentiated to post-mitotic neurons) under the control of the two different promoters: Ki67 or ubiquitin. Wild type ReNcells were used as control. […] (B–D) Kinetics of cell death of SR39-expressing ReNcells cells either under the control of cycle promoter Ki67 or ubiquitin promoter with increasing GCV concentrations of 1, 10, and 100 µM. Cell viability was measured every 24 h using a bioluminescent ATP-based assay (n = 3). (E) ReNcells were differentiated toward post-mitotic neurons for 21 days then treated with GCV for 10 days. Cell viability was measured using an ATP-based assay. Results are mean + SD of three independent experiments performed in triplicates. (F) Immunostaining, Hoechst in blue and Beta III tubulin (βIII tub) in green, ReNcells were differentiated toward neurons for 21 days, then treated with 10 µM of GCV during 10 days. TEXT PRINTED IN THE PICTURE: (A) GCV: ReNcell wt: 1.2 x 10^-5; ReNcell Ki67-SR39h: 2.1 x 10^-9; ReNcell Ki67-SR39h: 2.1 x 10^-9 DOUBTS OF THE COPYIST ABOUT THIS PICTURE: Panel A table: the picture prints no measure or unit for the three values. The only printed substance label is the axis title 'GCV in M', and the table rows are cell lines, so they are written as targets of the values.
(§2) Cell culture plate (96 wells plate Corning #3907, Corning, Lonay, Switzerland) were pre-coated with 60 μL per well of Poly-L-ornithine solution (Sigma, Merk, Eysins, Switzerland) at 37 °C for 30 min. […] For EC50 assays, the medium was changed daily for 4 days, then cell viability was assessed using an ATP-based assay. EC50 values for each construct were calculated using a four parameters equation (GraphPad, Prism8, San Diego, CA, USA). […] Luminescence was measured using Spectra L384/L96 (0.2 sec exposure, Molecular devices, Biberach an der Riß, Germany).

[4] = system: non-transduced hESC; assay type: cell-based; conditions: 96 h nucleoside exposure; up to 100 µM
Experimental: Cells were exposed to 100 µM of the respective nucleoside for 48 h. DNA damage was monitored using γ-H2A.X marker in yellow and nuclei were counterstained with Hoechst. The white box in the first column indicates the area of the zoom for the hESC colonies.
Plates were washed twice with DMEM-F12 (Gibco, ThermoFisher; Geneva, Switzerland), then coated with Matrigel (Corning, Lonay, Switzerland) 1/100 in DMEM-F12 and incubate 2 h at 37°. Cells were detached using Accutase and seeded at 2000 cells/well in serum-free culture medium containing 10 µM of ROCK inhibitor. At 24 h, the cell culture was continued without ROCK inhibitor. […] Drugs were prepared by serial dilution (two-fold) in 100% DMSO. At 48 h after seeding, cells were exposed to antiviral drugs for 96 h. For EC50 assays, the medium was changed daily for 4 days, then cell viability was assessed using an ATP-based assay. EC50 values for each construct were calculated using a four parameters equation (GraphPad, Prism8, San Diego, CA, USA). The same procedure was used for the cell death kinetic determinations except the treatment duration. Luminescence was measured using Spectra L384/L96 (0.2 sec exposure, Molecular devices, Biberach an der Riß, Germany).

[5] = system: Ubi-SR39h post-mitotic neurons differentiated from ReNcells; assay type: cell-based, human
Experimental: Figure 4 EC50 and kinetics of GCV-induced cell death in proliferating and post-mitotic ReNcells. SR39h was expressed in ReNcells (immortalized neural precursor cells that can be differentiated to post-mitotic neurons) under the control of the two different promoters: Ki67 or ubiquitin. Wild type ReNcells were used as control. […] (B–D) Kinetics of cell death of SR39-expressing ReNcells cells either under the control of cycle promoter Ki67 or ubiquitin promoter with increasing GCV concentrations of 1, 10, and 100 µM. Cell viability was measured every 24 h using a bioluminescent ATP-based assay (n = 3). (E) ReNcells were differentiated toward post-mitotic neurons for 21 days then treated with GCV for 10 days. Cell viability was measured using an ATP-based assay. Results are mean + SD of three independent experiments performed in triplicates. […]
as §2, with “Germany). […]” for “Germany).”

[6] = undifferentiated NPC, read-out: EC50 of GCV

## Nc1nc(O)c2ncn(COC(CO)CO)c2n1 [GCV, ganciclovir]
[1]; 96 h nucleoside exposure
  Cell death induction in SR39h-expressing cells (in words): strong suicide inducers
[1]; GCV EC50, SR39h vs SR39
  Fold more performant than SR39: 10 fold
[1]; read-out: EC50 (cell survival), 96 h nucleoside exposure, SR39h under Ki67 promoter
  EC50: 0.2 nM
[1]; read-out: GCV EC50 in M, 96 h GCV exposure, Ki67-SR39h
  EC50: 0.19 nM
[2]; 24-point dose response, n = 3, read-out: EC50 of GCV, ReNcell Ki67-SR39h (second line of the picture's table)
  EC50: 2.1 nM
[2]; [6]
  EC50: ~2.1 nM
[3]; 1 μM and 10 μM GCV, measured every 24 h
  Cell death induction kinetics, Ki67-SR39h compared to Ubi-SR39h: no significant differences
[3]; 100 μM GCV, at 24 h and 48 h, not at 72 h and 96 h
  Cell death induction kinetics, Ki67-SR39h compared to Ubi-SR39h: slightly slower dynamic of cell death
[3]; 24-point dose response, n = 3, read-out: EC50 of GCV, ReNcell Ki67-SR39h
  EC50: 2.1 nM
[3]; [6]
  EC50: ~2.1 nM
[4]
  Toxicity in non-transduced hESC: low micromolar range
[5]
  Cell death in post-mitotic neurons (in words): killed
[5]; human, 10 days
  GCV concentration from which cell death induction was detected: ≥ 10 µM
